Laboratory results published in patent US8796302B2 (priority 2004, dated 2014).

Key:
[1] = tested on: GalN/LPS-induced liver gene expression; experiment: Liver gene expression (real-time RT-PCR) after GalN/LPS; type: in vivo, mouse
Excerpt: Total RNA was extracted from liver tissues (n=4 to 5) by Trizol reagent (Sigma, St. Louis, Mo.) and purified with an RNeasy column (Qiagen, Valencia, Calif.). Expression of the selected genes was quantified using real-time RT-PCR analysis that began by reverse transcribing the samples with MuLV reverse transcriptase and oligo-dT primers.
The SYBR green DNA PCR kit (Applied Biosystems, Foster City, Calif.) was used for real-time PCR analysis. The relative differences in expression between groups were expressed using cycle time (Ct) values and the relative differences between groups were expressed as relative increases setting control as 100%. Assuming that the Ct value is reflective of the initial starting copy and that there is 100% efficacy, a difference of one cycle is equivalent to a two-fold difference in starting copy.

[2] = tested on: CD-1 mice given LPS/GalN; experiment: Liver histology in LPS/GalN endotoxic shock; type: in vivo, mouse
Experimental: Serum alanine aminotransferase (ALT) activity was assayed as a marker of hepatocellular death using a commercially available kit (Infinite ALT, Sigma, St. Louis, Mo.). A portion of the liver was fixed in 10% neutral formalin, processed by standard histological techniques, stained with hematoxylin and eosin, and examined for morphological evidence of liver injury.
Sections of the mice livers were stained with hematoxylin and eosin, and photomicrographs were taken at 100× magnification.

[3] = tested on: iNOS; experiment: Western blot of iNOS in microglia enriched cultures; type: cell-based, rat; details: femto-molar DM, 30 min pretreatment, LPS
Experimental: Western blots were used to analyze possible effects of DM on iNOS and COX2 production in rat microglia enriched cultures. The cultures were prepared and treated with vehicle, OM DM, 10^−14DM, LPS alone, and LPS with different concentrations of DM. The production of iNOS (inducible nitric oxide synthenase) and COX2 (cycloxyase 2) in the culture extracts were detected by Western Blot assay. Data in FIG. 9B represent the mean±S.E.

[4] = tested on: superoxide; experiment: Superoxide release (SOD-inhibitable cytochrome c reduction) after LPS; type: cell-based, rat
Experimental: The release of superoxide was determined by measuring the superoxide dismutase (SOD)-inhibitable reduction of cytochrome c. To measure the immediate release of superoxide from microglia-enriched or neuron-glia after stimulation, cultures grown in 96-well plates were switched to phenol red-free HBSS (50 μl/well). To each well was added 50 μl of HBSS containing vehicle or DM. The cultures were then incubated at about 37° C. for about 30 min followed by 50 μl of ferricytochrome c (100 μM) in HBSS, with and without 600 U/ml SOD, 50 μl of vehicle or LPS in HBSS. The absorbance at 550 nm was read with a SpectraMax Plus microplate spectrophotometer (Molecular Devices, Sunnyvale, Calif.).
This example tests whether or not post-treatment with DM is still neuroprotective in LPS-induced neurotoxicity. Neuron-glia co-cultures as prepared in Example 1 were first treated with LPS (20 ng/ml) for twelve hours, and then LPS was removed by removing the media from the cultures and washing twice with PBS. Different concentrations of DM (10^−5, 10^−10, and 10^−14 M) were then added to the cultures and incubation was continued for another 6 or 7 days. The DA uptake and the superoxide production were measured as in Example 1 and 5. Results are expressed as a percentage of the control cultures and are the mean±S.E.M of three to six experiments with triplicates in each experiment. ##, P<0.01 compared with control culture; *, P<0.05 compared with the LPS-treated culture.
Primary enriched-microglia cultures were prepared as in Example 1. […] The intracellular ROS concentrations and superoxide amounts were measured as in Example 5. The data are expressed as the percent of the control cultures and are the mean±SEM of three experiments performed in triplicate. *P<0.05, **P<0.01, compared to control.

[5] = tested on: CD-1 mouse Kupffer cells; experiment: Superoxide and intracellular ROS in LPS-stimulated Kupffer cells; type: cell-based; details: LPS 10 ng/ml
Experimental: Kupffer cell samples were collected by anesthetizing the CD-1 mice with pentobarbital anesthesia [60 mg/kg intraperitoneally (i.p.)]. The abdomen of the animals was shaved and opened, the portal vein was cannulated and perfused with Ca^2+- and Mg^2+-free Hanks' balanced salt solution (HBSS) at 37° C. for 5 min at a flow rate of 13 ml/min. Subsequently, the liver was perfused with HBSS containing 0.05% collagenase IV (Sigma Chemical, St. Louis, Mo.) at 37° C. for 5 min. After the liver was digested, it was excised and cut into small pieces in collagenase buffer. The suspension was filtered through nylon gauze mesh, and the filtrate was centrifuged at 450×g for 10 min at 4° C. Cell pellets were resuspended in buffer, parenchymal cells were removed by centrifugation at 50×g for 3 min, and the nonparenchymal cell fraction was washed twice with buffer. Cells were centrifuged on a density cushion of 50% of Percoll (Pharmacia, Upsala, Sweden) at 1,000×g for 15 min, and the Kupffer cell fraction was collected and washed again with buffer. The viability of the cells was determined by tryptan blue exclusion at >90%. The cells were seeded onto 24-well culture plates and cultured in RPMI 1640 (GIBCO Laboratories Life Technologies, Grand Island, N.Y.) supplemented with 10% fetal bovine serum and antibiotics (100 U/ml penicillin G and 100 μg/ml streptomycin sulfate) at 37° C. with 5% CO2. Non-adherent cells were removed after 2 hours by replacing media, and cells were cultured for 24 hours before the experiments.
The production of superoxide and intracellular ROS by the Kupffer cells were measured as in Example 5.

[6] = ratio to control, 12 hr, DM 12.5 mg/kg sc x2

For COc1ccc2c(c1)[C@@]13CCCC[C@H]1[C@@H](C2)N(C)CC3 [DM, d-3-methoxy-N-methylmorphinan], the “MIP-2 expression, LPS + DM” value ([1]; 12 hr after GalN/LPS, DM 12.5 mg/kg sc x2, controls 1.0, LPS/GalN alone 153.3 ± 6.4) was 39.0 ± 2.1 fold, the “GADD153 expression, LPS + DM” value ([1]; 12 hr, DM 12.5 mg/kg sc x2, controls 1.0, LPS/GalN alone 7.4 ± 0.3) was 2.7 ± 1.3 fold and the “ICAM-1 expression, LPS + DM” value ([1]; 12 hr, DM 12.5 mg/kg sc x2, controls 1.0, LPS/GalN alone 8.45 ± 1.3) was 5.05 ± 2.7 fold. The “mKC expression, LPS + DM” value ([1]; 12 hr, DM 12.5 mg/kg sc x2, controls 1.0, LPS/GalN alone 13.7 ± 2.9) was 5.8 ± 1.6 fold, the “GADD45 expression, LPS + DM” value ([1]; 12 hr, DM 12.5 mg/kg sc x2, controls 1.0, LPS/GalN alone 24.6 ± 12.4) was 5.3 ± 2.4 fold and the “IL-10 expression, LPS + DM” value ([1]; 12 hr, DM 12.5 mg/kg sc x2, controls 1.0, LPS/GalN alone 25.3 ± 2.9) was 15.0 ± 3.3 fold. The “c-jun/AP-1 expression, LPS + DM” value ([1]; 12 hr, DM 12.5 mg/kg sc x2, controls 1.0, LPS/GalN alone 28.0 ± 7.5) was 9.1 ± 0.8 fold, the “c-myc expression, LPS + DM” value ([1]; 12 hr, DM 12.5 mg/kg sc x2, controls 1.0, LPS/GalN alone 45.4 ± 3.6) was 18.4 ± 2.1 fold and the “Thrombospondin-1 expression, LPS + DM” value ([1]; 12 hr, DM 12.5 mg/kg sc x2, controls 1.0, LPS/GalN alone 94.2 ± 2.5) was 56.0 ± 1.57 fold. For the same compound, the “IL-6 expression, LPS + DM” value ([1]; 12 hr, DM 12.5 mg/kg sc x2, controls 1.0, LPS/GalN alone 153.4 ± 13.3) was 43.6 ± 6.3 fold, the “GADD45, LPS + DM/Cont” value [1, 6] was 5.3 fold and the “GADD153, LPS + DM/Cont” value [1, 6] was 2.7 fold. For the same compound, the “ICAM-1, LPS + DM/Cont” value [1, 6] was 5.05 fold, the “IL-6, LPS + DM/Cont” value [1, 6] was 43.6 fold and the “IL-10, LPS + DM/Cont” value [1, 6] was 15 fold. The “MIP-2, LPS + DM/Cont” value [1, 6] was 39.0 fold, the “Thrombospondin-1, LPS + DM/Cont” value [1, 6] was 56.0 fold and the “c-jun/AP-1, LPS + DM/Cont” value [1, 6] was 9.1 fold. For the same compound, the “c-myc, LPS + DM/Cont” value [1, 6] was 18.4 fold, the “mKC, LPS + DM/Cont” value [1, 6] was 5.8 fold and the “liver histology (hematoxylin and eosin)” value ([2]; 100 pg/kg DM plus LPS/GalN) was “cell death is mild”. For the same compound, the “liver histology (hematoxylin and eosin)” value ([2]; 1 μg/kg DM plus LPS/GalN) was “hepatic congestion and cell death are obvious”, the “liver histology (hematoxylin and eosin)” value ([2]; 10 mg/kg DM plus LPS/GalN) was “hepatic congestion and cell death are mild” and the “liver pathological alterations (necrosis, apoptosis, swelling)” value ([2]; DM treatments, 12 hours after LPS/GalN) was “dramatically ameliorated”. The “protein content of iNOS” value [3] was “failing to affect the protein content”, the “LPS-induced increase in the release of superoxide” value ([4]; DM 10^−5 M and 10^−14 M pretreatment) was “significantly decreased” and the “LPS-induced increase in superoxide production, post-treatment” value ([4]; DM 10^−5 and 10^−14 M post-treatment, 24 h after LPS) was “significantly inhibited LPS-induced increase in superoxide production”. For the same compound, the “LPS-induced increase in the release of superoxide” value ([4]; DM 10^−10 M pretreatment) was “no significant reduction”, the production of superoxide ([4]; DM 10^−10 M, pre- or post-treatment) was “neither pre-treatment nor post-treatment with DM at 10^−10 M significantly affected the production of superoxide” and the extracellular superoxide production ([5]; DM 5 μM) was “attenuated”. The “intracellular superoxide production (iROS)” value ([5]; DM 5 μM) was “attenuated”, the extracellular superoxide production ([5]; DM 10 μM) was “significantly blunted” and the “intracellular superoxide production (iROS)” value ([5]; DM 10 μM) was “significantly blunted”.
